Columns and labels:
Assay type in all cases: cell-based, human
[1] = tested on: BU3 NKX2-1GFP+/SFTPCtdTomato- population; assay: Late CHIR withdrawal from sorted NKX2-1GFP+/SFTPCtdTomato- population in 3D culture; conditions: CHIR withdrawn for 10 days (days 40-50), cells sorted day 38
Protocol: (§1) Where indicated in the text, outgrowth and distal/alveolar differentiation of cells after day 15 was performed in “CK+DCI” medium, consisting of cSFDM base, with 3 μM CHIR99021, 10 ng/mL rhKGF, and 50 nM dexamethasone (Sigma), 0.1 mM 8-Bromoadenosine 3′,5′-cyclic monophosphate sodium salt (Sigma) and 0.1 mM 3-Isobutyl-1-methylxanthine (IBMX) (Sigma) (DCI). Immediately after replating cells on Day 15 10 μM Y-27632 was added to the medium for 24 hours. Additional growth factors or cytokines were added or withdrawn as indicated in the text, including FGF10, TGFb, EGF, OSM (20 ng/ml), TNFa (10 ng/ml), and IL-1b (10 ng/ml) with other concentrations listed in figure legends (FIGS. 9A, 9B).
(§2) Alveolosphere Long Term Culture, Dissociation, and Differentiation. Alveolospheres developed in 3D matrigel culture outgrowths within 3-7 days after day 15 replating, and were maintained in CK+DCI media for weeks to months, as indicated in the text. These spheres were analyzed as follows: Z-stack images of live alveolospheres were taken and processed on a Keyence (Osaka, Japan) BZ-X700 fluorescence microscope. […] To generate single cell suspensions, cell pellets were incubated in 0.05% trypsin and continued through the trypsin-based dissociation protocol described above, after which they could be passaged into fresh matrigel, analyzed by flow cytometry, or sorted as described above. […]

[2] = tested on: NKX2-1+ lung epithelial progenitor cells; assay: SFTPCtdTomato reporter induction in day 15 NKX2-1+ progenitor outgrowth in 3D culture (flow cytometry)
Protocol: Purification of NKX2-1+ Lung Progenitors by Cell Sorting. On day 15 of differentiation, cells were incubated at 37° C. in 0.05% trypsin-EDTA (Invitrogen) for 7-15 minutes, until they reached single cell suspension. Cells were then washed in media containing 10% fetal bovine serum (FBS, ThermoFisher), centrifuged at 300g×5 minutes, and resuspended in sort buffer containing Hank's Balanced Salt Solution (ThermoFisher), 2% FBS, 10 μM Y-27632, and 10 uM calcein blue AM (Life Technologies) for dead cell exclusion. Cells not containing the NKX2-1GFP reporter were subsequently stained with CD47-PerCPCy5.5 and CD26-PE antibodies (mouse monoclonal; Biolegend 1:200; 1×10^6 cells in 100 ul) for 30 minutes at 4° C., washed with PBS, and resuspended in sort buffer. Cells were passed through a 40 um strainer prior to sorting (Falcon). Various live cell populations indicated in the text (i.e. GFP+, GFP−, CD47hi/CD26−,CD47lo) were sorted on a high-speed cell sorter (MoFlo Legacy). Directed Differentiation of NKX2-1+ Lung Progenitor Outgrowth into iAEC2s Day 15 cells, either sorted (as described above) or unsorted (dissociated as described above), were resuspended in undiluted growth factor-reduced matrigel (Corning) at a dilution of 50-100 cells/ul, with droplets ranging in size from 20 ul in 96 well plates to 1 ml in 10 cm tissue culture-treated dishes (Corning). Cells in matrigel suspension were incubated at 37° C. for 20-30 minutes, then warm media was added to the plates. […]
as §2, with “Alveolospheres developed in 3D matrigel culture outgrowths within 3-7 days after day 15 replating, and were maintained in CK+DCI media for weeks to months, as indicated in the text.” left out

RUES2 alveolospheres = assay: CHIR addback after 1-week withdrawal in alveolospheres; conditions: CHIR withdrawn week 4-5, added back week 5-6
Protocol: as §1, §2

TNFa/NFkB pathway = assay: Cytokine stimulation of PSC-derived alveolospheres, TNFa/NFkB pathway (Western blot IkB, IL8 and GM-CSF RT-qPCR); conditions: TNFa 10 ng/ml and IL1b 10 ng/ml given together
Protocol: as §1
Reverse Transcriptase Quantitative Real Time Polymerase Chain Reaction (RT-qPCR). RT-qPCR was performed as previously described (Hawkins et al. 2017,). Briefly, RNA was isolated according to manufacturer's instructions using the Qiagen miRNeasy mini kit (Qiagen, Venlo, Netherlands). cDNA was generated by reverse transcription of up to 150 ng RNA from each sample using the Applied Biosystems High-Capacity cDNA Reverse Transcription Kit. […] Relative gene expression was calculated based on the average cycle (Ct) value of the technical triplicates, normalized to 18S control, and reported as fold change (2(−ΔΔCT)), with a fold change of 1 being assigned to undifferentiated (day 0) iPSCs or ESCs. […]

Molecule: Cc1c[nH]c(-c2cnc(NCCNc3ccc(C#N)cn3)nc2-c2ccc(Cl)cc2Cl)n1 [CHIR, CHIR99021, reference compound]
- efficiency of differentiation into SFTPC+ progeny after withdrawal of CHIR [1]: 68.7%
- emergence of SFTPC+ cells from NKX2-1+ precursors in presence of Wnt stimulation via CHIR ([2]; 17-22 total differentiation days): 2 to 7 days
- cells with induction of the SFTPCtdTomato reporter ([2]; sorted NKX2-1GFP+ cells, by day 21, presence of CHIR in K+DCI base media): 7.17+/−0.89%
- effect of re-exposure to CHIR after 1-week withdrawal (RUES2 alveolospheres): maintained expression of the SFTPCtdTomato reporter and increased proliferation

Molecule: EGF: Recombinant mouse EGF (NSYPGCPSSYDGYCLNGGVCMHIESLDSYTCNCVIGYSGDRCQTRDLRWWELR; UniProt P01132 977-1029, looked up)
- further SFTPC induction efficiency with addition of the factor ([2]; factor added to differentiation media, FIG. 9B): No consistent further SFTPC induction efficiency

Molecule: IL1b: Recombinant human IL1-b
- NFkB signaling (IkB protein decrease, IL8 and GM-CSF expression) (TNFa/NFkB pathway): activated NFkB signaling

Molecule: TNFa
- NFkB signaling (IkB protein decrease, IL8 and GM-CSF expression) (TNFa/NFkB pathway): activated NFkB signaling
